Patent US11078222B2, “Hydroxybenzoic acid derivatives, methods and uses thereof” (UNiVERSIDADE DO PORTO, priority 2016, dated 2021)
pIC50: −log10 of the molar value. Each block holds one compound with its values, some of them ahead of it.

Experiments:
[1] = Iron (II) chelation, ferrozine assay; assay type: biochemical; details: compound 100 μM
Description: In an embodiment, the iron (II) chelation capacity of the novel AntiOxBENs was evaluated by the ferrozine assay using EDTA (ethylenediaminetetracetic acid) as reference. The iron chelating properties of protocatechuic and gallic acids, and MitoQ, a mitochondriotropic antioxidant, were also evaluated (FIG. 2).
In an embodiment, AntiOxBENs iron chelating properties were evaluated by the spectrophotometric ferrozine method performed in a multiplate reader (Powerwave XS Microplate Reader) of Bio-Tech instruments.
In an embodiment, the AntiOxBENs iron chelating properties were evaluated as follows: in each well, a solution of the test compound (100 μM) and ammonium iron (II) sulphate in ammonium acetate (20 μM) were added, incubated for 10 min and the absorbance was read at 562 nm. Then, a freshly prepared solution of ferrozine (5 mM) was added to each well (96 μM final concentration). After a new incubation at 37° C. for 10 min period, the absorbance of [Fe(ferrozine)3]^2+ complex was measured at 562 nm. Blank wells were run using DMSO instead of the test compounds. EDTA was used as a reference. All compounds were tested at a final concentration of 100 μM. The absorbance of the first reading was subtracted to the final values to abolish any absorbance due to the test compounds.

[2] = DPPH radical scavenging activity (total antioxidant capacity); assay type: biochemical; details: ethanol, 515 nm, 45 min
[3] = ABTS radical cation scavenging activity; assay type: biochemical; details: ethanol, 15 min
[4] = GO radical scavenging activity; assay type: biochemical; details: ethanol, 428 nm, 30 min
[5] = Redox potential by differential pulse and cyclic voltammetry, glassy carbon electrode; assay type: physicochemical; details: physiological pH 7.4
Description: In an embodiment, the oxidative behaviour of the parent antioxidants (protocatechuic and gallic acids) and AntiOxBENs was evaluated at physiological pH 7.4, by differential pulse and cyclic voltammetry, using a glassy carbon working electrode. […] For pyrogallol derivatives (gallic acid, AntiOxBEN2, AntiOxBEN3), a significant decrease in redox potentials was observed (Ep=0.163-0.168 V) (Table 1).
In an embodiment, the electrochemical analytical data was obtained using a computer controlled potentiostat Autolab PGSTAT302N (Metrohm Autolab, Utrecht, Netherlands). Generally, cyclic voltammetry (CV) data was acquired at a scan rate of 50 mVs^−1. Differential pulse voltammetry (DPV) results were acquired at a step potential of 4 mV, pulse amplitude of 50 mV and scan rate of 8 mVs^−1. The electrochemical signals were monitored by the General Purpose Electrochemical System (GPES) version 4.9, software package. All electrochemical experiments were performed at room temperature in an electrochemical cell that was placed in a Faraday cage in order to minimize the contribution of background noise to the analytical signal.
In an embodiment, the process of evaluation of AntiOxBENs redox properties was conducted as follows: stock solutions of each compound (10 mM) were prepared by dissolving the appropriate amount in ethanol. The voltammetric working solutions were prepared in the electrochemical cell, at a final concentration of 0.1 mM. The […] supporting electrolyte was prepared by diluting 6.2 mL of 0.2 M dipotassium hydrogen phosphate and 43.8 mL of 0.2 M potassium dihydrogen phosphate to 100 mL. Voltammetric data was acquired in a three-electrode system consisting of a glassy carbon electrode (GCE, d=2 mm) as working electrode, a counter electrode of platinum wire and a saturated Ag/AgCl reference electrode. In an embodiment, the evaluation of AntiOxBENs lipophilic properties was performed as follows: the electrochemical cell was a four-electrode system with arrays of micro liquid-liquid interfaces (μITIES) containing two Ag/AgCl reference electrodes and two counter electrodes of Pt, one in each phase. The microporous membrane was sealed with a fluorosilicone sealant (Dow Corning 730) onto a glass cylinder which was filled with 4.0 mL of the aqueous phase, where the aliquots of AntiOxBENs solutions were added. The membrane was then immersed into the organic phase contained in the cell. The organic phase reference solution (a 2 mM BTPPACI+2 mM NaCl aqueous solution) was mechanically stabilized The aqueous supporting electrolyte solution was a Tris-HCl buffer 10 mM pH 7.0.

[6] = system: rat liver mitochondria (RLM) membranes; experiment: RLM lipid peroxidation, TBARS assay (FeSO4/H2O2/ascorbate); details: 5 μM; for prevention of TBARS formation / mitochondria lipid peroxidation: FeSO4/H2O2/ascorbate
[7] = system: rat liver mitochondria (RLM); experiment: Mitochondrial respiration of isolated RLM (Clark-type oxygen electrode): RCR, ADP/O; assay type: biochemical
Description: (§1) In an embodiment, and as an example, the toxicity effects of some AntiOxBENs and MitoQ on the mitochondrial bioenergetics, namely on RLM Δψ and respiration parameters, were measured. The Δψ represents the main component of the electrochemical gradient generated by mitochondrial respiration and accounts for more than 90% of the total available energy. For mitochondrial respiration assays, glutamate/malate (for complex I) and succinate (for complex II) were used as substrates. In addition, the mitochondrial oxidative phosphorylation coupling index, known as respiratory control ratio (RCR, state 3/state 4 respiration) and ADP/O index (the coupling between ATP synthesis and oxygen consumption) were also calculated. AntiOxBENs and MitoQ were tested at antioxidant-relevant concentrations, with 10 μM being the highest concentration.
In an embodiment, the evaluation of AntiOxBENs effect on mitochondrial respiration was performed as follows: the respiration of isolated RLM was evaluated polarographically with a Clark-type oxygen electrode, connected to a suitable recorder in a 1 mL thermostated water-jacketed chamber with magnetic stirring, at 37° C. […] Increasing concentrations of AntiOxBENs (2.5-10 μM) were added to the reaction medium containing respiratory substrates glutamate/malate (10 mM and 5 mM respectively) or succinate (5 mM) and RLM (1 mg) and allowed to incubate for a 5 min period prior to the assay. State 2 was considered as the respiration during the 5 min incubation time with AntiOxBENs. […] State 4 was determined after ADP phosphorylation finished. Subsequent addition of oligomycin (2 μg/ml) inhibited ATPsynthase and originated the oligomycin-inhibition respiration state. Finally, 1 μM FCCP was added to induce uncoupled respiration. […] Data are means are means±SEM of seven independent experiments.

[8] = system: rat liver mitochondria (RLM); experiment: Mitochondrial transmembrane electric potential (safranine fluorescence); assay type: biochemical
Description: as §1
In an embodiment, the evaluation of AntiOxBENs effect on mitochondrial transmembrane electric potential (Δψ) was performed as follows: the mitochondrial transmembrane electric potential (Δψ) was estimated through the evaluation of fluorescence changes of safranine (5 μM) and was recorded on a spectrofluorometer operating at excitation and emission wavelengths of 495 and 586 nm, with a slit width of 5 nm. Increasing concentrations of AntiOxBENs (2.5-10 μM) were added to the reaction medium (200 mM sucrose, 1 mM KH2PO^4, 10 mM Tris (pH 7.4) and 10 μM EGTA) containing respiratory substrates glutamate/malate (5 mM and 2.5 mM respectively) or succinate (5 mM) and RLM (0.5 mg in 2 mL final volume) and allowed to incubate for a 5 min period prior to initiate the assay, at 25° C. In this assay, safranine (5 μM) and ADP (25 nmol) were used to initiate the assay and to induce depolarization, respectively. Then, 1 μM FCCP was added at the end of all experiments to depolarize mitochondria. Δψ was calculated using a calibration curve obtained when RLM were incubated in a K^+-free reaction medium containing 200 mM sucrose, 1 mM NaH2PO4, 10 mM Tris (pH 7.4) and 10 μM EGTA, supplemented with 0.4 μg valinomicin. […] “Repolarization” corresponded to the recovery of membrane potential after the complete phosphorylation of ADP added. Lag phase reflected the time required to phosphorylate the added ADP. Isolated RLM developed a Δψ≈226 mV and Δψ≈202 mV (negative inside) when glutamate/malate or succinate were used, respectively. Data are means±SEM of five independent experiments.

- pIC50 [2]: 5.00
- pIC50 [3]: 5.11
- pIC50 [4]: 5.60
- Ep (redox potential) [5]: 0.163 V
Compound: O=C(O)c1cc(O)c(O)c(O)c1 [Gallic acid]
- ability to chelate ferrous iron [1]: able to chelate iron efficiently
- prevention of TBARS formation / mitochondria lipid peroxidation [6]: most effective

- pIC50 [2]: 4.57
- pIC50 [3]: 4.51
- pIC50 [4]: 5.35
- Ep (redox potential) [5]: 0.099 V
Compound: Cc1c(C)c2c(c(C)c1O)CCC(C)(C(=O)O)O2 (centres unmarked) [Trolox]

- pIC50 [2]: 4.58
- pIC50 [3]: 4.51
- pIC50 [4]: 5.24
Compound: Vitamin E

The remaining lines, values behind:

Compound: O=C(O)CN(CCN(CC(=O)O)CC(=O)O)CC(=O)O [EDTA, ethylenediaminetetracetic acid]
- ability to chelate ferrous iron [1]: chelate all the iron available in solution

Compound: COC1=C(OC)C(=O)C(CCCCCCCCCC[P+](c2ccccc2)(c2ccccc2)c2ccccc2)=C(C)C1=O.CS(=O)(=O)[O-] [MitoQ, [10-(4,5-dimethoxy-2-methyl-3,6-dioxo-1,4-cyclohexadien-1-yl)decyl]triphenylphosphonium methanesulfonate, reference compound]
- concentration causing toxicity on the mitochondrial bioenergetic apparatus of RLM ([7]; RLM): 2.5 µM
- ADP/O ([7]; RLM, Glutamate/Malate, 2.5 μM): 2.2 ± 0.1
- RCR ([7]; RLM, Glutamate/Malate, 2.5 μM): 4.2 ± 0.6
- ADP/O ([7]; RLM, Glutamate/Malate, 5 μM): 1.9 ± 0.1
- RCR ([7]; RLM, Glutamate/Malate, 5 μM): 2.7 ± 0.3
- ADP/O ([7]; RLM, Glutamate/Malate, 10 μM): 2.0 ± 0.2
- RCR ([7]; RLM, Glutamate/Malate, 10 μM): 1.3 ± 0.1
- ADP/O ([7]; RLM, Succinate, 2.5 μM): 1.3 ± 0.1
- RCR ([7]; RLM, Succinate, 2.5 μM): 2.6 ± 0.2
- ADP/O ([7]; RLM, Succinate, 5 μM): 1.3 ± 0.1
- RCR ([7]; RLM, Succinate, 5 μM): 2.4 ± 0.2
- effect on RCR and ADP/O parameters ([7]; RLM, all tested concentrations (2.5-10 μM)): significant decrease of RCR and ADP/O parameters
- uncoupling of RLM ([7]; succinate, highest concentration tested (10 μM)): completely uncoupled
- Δψ after ADP addition ([8]; 10 μM): Δψ collapse after ADP addition
- ADP-induced depolarization (ΔΨ in - mV) ([8]; Glutamate/Malate, 2.5 μM): 173.0 ± 9.4 - mV
- Lag Phase ([8]; Glutamate/Malate, 2.5 μM): 86.5 ± 5.6 s
- Maximum potential (ΔΨ in - mV) ([8]; Glutamate/Malate, 2.5 μM): 195.7 ± 10.8 - mV
- Repolarization Potential (ΔΨ in - mV) ([8]; Glutamate/Malate, 2.5 μM): 191.1 ± 11.7 - mV
- ADP-induced depolarization (ΔΨ in - mV) ([8]; Glutamate/Malate, 5 μM): 173.5 ± 8.9 - mV
- Lag Phase ([8]; Glutamate/Malate, 5 μM): 84.5 ± 7.1 s
- Maximum potential (ΔΨ in - mV) ([8]; Glutamate/Malate, 5 μM): 188.3 ± 10.6 - mV
- Repolarization Potential (ΔΨ in - mV) ([8]; Glutamate/Malate, 5 μM): 185.0 ± 9.4 - mV
- Maximum potential (ΔΨ in - mV) ([8]; Glutamate/Malate, 10 μM): 113.8 ± 10.2 - mV
- ADP-induced depolarization (ΔΨ in - mV) ([8]; Succinate, 2.5 μM): 162.1 ± 6.0 - mV
- Lag Phase ([8]; Succinate, 2.5 μM): 104.8 ± 9.9 s
- Maximum potential (ΔΨ in - mV) ([8]; Succinate, 2.5 μM): 181.6 ± 8.3 - mV
- Repolarization Potential (ΔΨ in - mV) ([8]; Succinate, 2.5 μM): 182.7 ± 9.2 - mV
- ADP-induced depolarization (ΔΨ in - mV) ([8]; Succinate, 5 μM): 157.1 ± 6.4 - mV
- Lag Phase ([8]; Succinate, 5 μM): 92.6 ± 19.4 s
- Maximum potential (ΔΨ in - mV) ([8]; Succinate, 5 μM): 170.2 ± 8.1 - mV
- Repolarization Potential (ΔΨ in - mV) ([8]; Succinate, 5 μM): 170.7 ± 8.7 - mV
- Maximum potential (ΔΨ in - mV) ([8]; Succinate, 10 μM): 108.9 ± 3.8 - mV
- inhibition of lipid peroxidation in RLM ([6]; FIGS. 4 and 5 (TBARS and oxygen consumption)): effectively inhibited lipid peroxidation

Compound: O=C(O)c1ccc(O)c(O)c1 [Protocatechuic acid]
- pIC50 [2]: 4.56
- pIC50 [3]: 4.52
- pIC50 [4]: 5.24
- Ep (redox potential) [5]: 0.257 V
- ability to chelate ferrous iron [1]: able to chelate iron efficiently
- prevention of TBARS formation / mitochondria lipid peroxidation [6]: not effective
